From patent US12527849B2, “Apparatus for determining administration form of a composition of an engineered virus-based nanoparticle for a treatment of an autoimmune condition” (Diamante Srl, priority 2021, dated 2026) come the findings set out here.

Assay [1] relates to CD25+ Foxp3+ cells. The assay can be described thus: Percentage of CD25+ Foxp3+ cells in lymph nodes of CIA mice. The assay is classed as in vivo. Particulars: day 60 after immunization, i.p. treatment, mean (SEM), n=3. The text has this: With continued reference to FIG. 1, in some embodiments, administration 116 may be done to an animal. As a non-limiting example, the animal may include a mouse, a fish, a rabbit, human, and the like. As a non-limiting example, administration 116 of composition of the engineered virus-based nanoparticle for a treatment of an autoimmune condition may be done to dilute, brown, and non-agouti (DBA) mice based on their susceptibility to collagen-induced arthritis (CIA). Female DBA/1 mice 6 to 8 weeks of age may be maintained under specific pathogen-free conditions. CIA may be induced by the intradermal tail base injection of 100 μg of chicken type II collagen (Sigma-Aldrich) as previously described. […] CIA may be assessed using a macroscopic score system based on the visual identification of arthritic limbs. The clinical severity of arthritis may be evaluated as follows: Each mouse may be inspected every 2 to 3 days for three different parameters: (i) swelling of the hind ankle and foot, measured with calipers; (ii) erythema of each leg; and (iii) swelling of the fingers. The RA index for each mouse was expressed as the mean of the three scores from the individual parameters. At the end of the experiment (60 days), we determined the proportion of CD25+Foxp3+ cells in the lymph nodes and measured cytokine titers in the lymph nodes, joints, and serum. […]

In assay [2] the test system is IL-17A. As to the kind of experiment: Pro-inflammatory cytokines in sera of CIA Collagen mice (ELISA, day 58): IL-17A. The assay is classed as in vivo. Particulars: Dexamethasone oral 1 mg/kg, 20 times between day 28 and 57. On the procedure:
Critical administration 124 disclosed herein is further described below. Q5D represents administration 5 days a part. TBSV·pLIp1 and wt TBSV shown in Table 1 may include liquid form that are not sterile and stored in −20° C. TBSV·pLIp1 may be given at the dose of 50 μG/100 μL Male DBA/1J mice (8 weeks; Envigo, Italy) may be used for these studies. Mice may be housed in individual cages (two for each group) and maintained under a 12:12 light-dark cycle at 21° C.±1° C. and 50%±5% humidity. The animals may be acclimated to their environment for 1 week and had ad libitum access to tap water and standard rodent diet. All animal experiments may be complied with regulations in Italy (D.M. 116192), Europe (O.J of E.C. L 358/112/18/1986), and the United States (Animal Welfare Assurance Number A5594-01, Department of Health and Human Services, USA). […] Arthritis was assessed by using qualitative severity score system and hind paw volume (mL) measured by a plethysmometer on day 20, 22, 24, 26, 28, 30, 32, 34, 36, 38, 40, 42, 44, 46 48, 50, 52, 54, 56 and 58. Body weight was recorded on day 0, 6, 13, 16, 18, 20, 22, 24, 26, 28, 30, 32, 34, 36, 38, 40, 42, 44, 46, 50, 52, 54, 56 and 58. […]
In general terms: In an ELISA, binding on a coated surface is turned into a signal by an enzyme label.

With `C[C@@H]1C[C@H]2[C@@H]3CCC4=CC(=O)C=C[C@]4(C)[C@@]3(F)[C@@H](O)C[C@]2(C)[C@@]1(O)C(=O)CO` [Dexamethasone, dexamethasone], in assay [1], the “% CD25^+/Foxp3^+” value is 3.26 (0.84) %. In addition, in assay [2], the “IL-17A, % of reduction vs CIA Collagen” value was 25.07%.
